Key:
[1] = system: adrenergic beta-2 receptors; assay: Down-regulation of adrenergic beta-2 receptors, receptor binding on adipocytes; assay type: in vivo; settings: rats
Excerpt: The populations of adrenergic beta-2 receptors on cells (adipocytes) from rats are studied.

barnacle naupii = settings: cited from earlier work
mice = assay: Stress-induced mortality (modified physostigmine-induced lethality test); assay type: in vivo
Excerpt: A modification of the physostigmine-induced lethality test that successfully was used for testing of sedation by Schering in the loratadine project (Villani F. J., et al., U.S. Pat. No. 4,659,716, 1987) and by Sepracor in the desloratadine project (Aberg, G. et al. U.S. Pat. No. 5,595,997) was used. In short, mice that previously had not been housed together, suffer from severe stress when placed together (n=10) in a new environment, such as a small cage with which they are not familiar. […] Similarly, increased stress by ractopamine in livestock animals has been reported by Marchant-Forde et al., 2003. […] The number of surviving mice was counted 30 minutes after the animals had been placed in the test-cage, which was 60 min after the administration of ractopamine.

newborn calves = assay: In vivo study in newborn calves (survival to weaning); parameters: species or system cattle
Experimental: The present study was performed at a farm with a high rate of mortality of newborn calves from Cryptosporidiosis and upper respiratory infections.
Two groups of 13 newborn calves were studied. All animals were given milk replacement and beta 1.3/1.6 D-glucan was added to the milk replacement for the second group.

Compound: CC(C)(C)NCC(O)c1ccc(O)c(CO)c1 (racemic) [salbutamol]
- adrenergic beta-2 receptor population on adipocytes ([1]; one and two weeks continuous s.c. administration by Alza osmotic pumps): down-regulated
- LD50 (barnacle naupii): approximately 1.8 μg/ml

Compound: CNC(=O)Oc1ccc2c(c1)[C@]1(C)CCN(C)[C@@H]1N2C [physostigmine]
- lethality (mice; stressed grouped mice (n=10), 1.0 mg/kg s.c.): ~100%

Compound: CC(CCc1ccc(O)cc1)NCC(O)c1ccc(O)cc1 (stereo not drawn) [ractopamine]
- stress (mice; grouped mice in unfamiliar cage): increased the stress
- mortality (mice; mice given a sub-lethal dose of physostigmine): increased mortality

Compound: beta 1.3/1.6 D-glucan [Agrastim®]
- survival of calves (newborn calves; 8 weeks treatment in milk replacement, control 7 out of 13): 12 out of 13
- Calves Weaned (newborn calves; 13 calves born, 500 mg day 1, 250 mg/day day 2-56 in milk replacement, farm with high calf mortality): 12
- effect on salbutamol-induced down-regulation of adrenergic beta-2 receptors ([1]; glucan given one week before pump implantation and continuously thereafter): decreased or inhibited
- stress and stress-induced mortality in ractopamine-treated animals (mice; mice pretreated orally daily for five days, survivors counted 30 min after placing in test-cage, 60 min after ractopamine): significantly decreased stress and stress-induced mortality

Source: patent US20090054338A1, “Synergisms between repartitioning and immunomodulating compounds” (priority 2007, published 2009)
